Data: ChEMBL document CHEMBL1201862, “PubChem BioAssay data set” (2004)
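Five concentrations, 48 hours, 96-well plates. GI50 is the concentration that inhibits growth by half.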 Active and inactive are the calls of the source. Cut-off read from the data, not from the text of the source: active = GI50 up to about 1.1 µM and inactive = higher.

What was measured:
Experiment in all cases: DTP human tumour cell line panel, 48 h
[1] = system: UACC-62
[2] = system: OVCAR-5
[3] = system: HCT-15
[4] = system: EKVX
[5] = system: COLO 205
[6] = system: RPMI-8226
[7] = system: CAKI-1
[8] = system: KM-20L2
[9] = system: ACHN
[10] = system: LXFL 529
[11] = system: SK-MEL-5
[12] = system: SR
[13] = system: NCI-H522
[14] = system: SN12C
[15] = system: NCI-H23
[16] = system: MDA-N
[17] = system: PC-3
[18] = system: MCF7
[19] = system: T47D
[20] = system: NCI/ADR-RES

Measured: GI50

O=C1NC(=O)C(C(=O)C(=O)Nc2ccc(Cl)cc2Cl)C(=O)N1
> 100 µM: [3]
inactive: [1] > 100 µM | [2] > 100 µM | [4] > 100 µM | [5] > 100 µM | [6] > 100 µM | [7] > 100 µM | [8] > 100 µM | [9] > 100 µM | [10] > 100 µM | [11] > 100 µM

COC(=O)C1C2CC3C(OC(=O)C31)C2I (stereo not given)
inactive: [12] > 100 µM | [1] > 100 µM | [2] > 100 µM | [13] > 100 µM | [4] > 100 µM | [14] > 100 µM | [5] > 100 µM | [6] > 100 µM | [7] > 100 µM | [8] > 100 µM | [15] > 100 µM | [9] > 100 µM | [11] > 100 µM
> 100 µM: [3]

Cc1ccc(S(=O)(=O)N(/N=C/C=C/c2ccccc2)c2nnc(-c3ccccc3)c(-c3ccccc3)n2)cc1
25.6 µM: [3]
inactive: [1] 26.7 µM | [2] 41.2 µM | [13] 15.9 µM | [4] 24.9 µM | [14] 38.4 µM | [5] 16.9 µM | [6] 11.3 µM | [7] 17.9 µM | [8] 17.9 µM | [15] 15.8 µM | [9] 29.8 µM | [11] 14.9 µM

CSc1snc2sc3c(Cl)nnnc3c12
8.15 µM: [3]
inactive: [1] 14.2 µM | [2] 17.2 µM | [4] 19.6 µM | [14] 15.3 µM | [5] 10.5 µM | [6] 15.6 µM | [7] 4.42 µM | [8] 14 µM | [15] 18.3 µM | [9] 11.1 µM | [10] 2.11 µM | [11] 16.7 µM

C=CCC(C(=O)OC)C1(C(=O)OC)c2[nH]c3ccccc3c2CCN1Cc1ccccc1 (stereo not given)
inactive: [12] 6.68 µM | [1] 74.6 µM | [2] > 100 µM | [13] > 100 µM | [4] > 100 µM | [14] > 100 µM | [5] > 100 µM | [6] > 100 µM | [7] 66.8 µM | [8] > 100 µM | [15] > 100 µM | [11] 85.5 µM
> 100 µM: [3]

CC(=O)O[C@@H]1CO[C@H]2O[C@H]3[C@@H](C(C=O)=C[C@H](O)[C@@H]4C5=C(C(C)C)CC[C@]5(C)CC[C@@]34C)[C@@]2(O)C1=O [STRIATIN E]
0.2 µM: [3]
active: [12] 0.146 µM | [1] 0.515 µM | [16] 0.177 µM | [2] 0.303 µM | [13] 0.0803 µM | [4] 0.359 µM | [17] 0.0968 µM | [14] 0.156 µM | [5] 0.0769 µM | [18] 0.217 µM | [6] 0.0592 µM | [7] 0.2 µM | [15] 0.209 µM | [9] 0.114 µM | [19] 0.0889 µM | [20] 0.189 µM | [11] 0.267 µM

C=CC[C@H]1[C@H](O[Si](C)(C)C(C)(C)C)C=CC(=O)[C@@H]1CC(=O)OCC
inactive: [12] 15 µM | [1] 11.9 µM | [16] 15.7 µM | [2] 14.1 µM | [13] 12.5 µM | [4] 11.9 µM | [17] 9.59 µM | [14] 16.3 µM | [5] 15.3 µM | [18] 11.5 µM | [6] 2.31 µM | [7] 12.4 µM | [15] 15.5 µM | [9] 14.2 µM | [19] 6.04 µM | [20] 11 µM | [11] 11 µM
13.5 µM: [3]

c1cncc(CNCCN2CCNCC2)c1
> 100 µM: [3]
inactive: [12] > 100 µM | [1] > 100 µM | [16] > 100 µM | [2] > 100 µM | [13] > 100 µM | [4] > 100 µM | [17] > 100 µM | [14] > 100 µM | [5] > 100 µM | [18] > 100 µM | [6] > 100 µM | [7] > 100 µM | [15] > 100 µM | [9] > 100 µM | [19] > 100 µM | [20] > 100 µM | [11] > 100 µM

CC1(C)CN=C(Nc2ccc(Cl)cc2)S1
> 100 µM: [3]
inactive: [12] 65.6 µM | [1] 78.7 µM | [16] > 100 µM | [2] > 100 µM | [13] > 100 µM | [4] 64 µM | [17] > 100 µM | [14] > 100 µM | [5] > 100 µM | [18] > 100 µM | [6] 52.6 µM | [7] > 100 µM | [15] 74.6 µM | [9] > 100 µM | [19] 42.9 µM | [20] 76.6 µM | [11] 62.7 µM

CC(C)(C)OC(=O)N1CC(COS(C)(=O)=O)c2ccc(O)cc21 (stereo not given)
inactive: [1] 1.73 µM | [16] 2.08 µM | [2] 2.12 µM | [4] 2.23 µM | [17] 1.73 µM | [14] 2.25 µM | [5] 1.58 µM | [18] 1.13 µM | [7] 2.42 µM | [15] 1.14 µM | [19] 3.05 µM | [20] 1.74 µM | [11] 1.51 µM
active: [12] 0.703 µM | [13] 1.05 µM | [6] 0.615 µM | [9] 0.684 µM
2.46 µM: [3]

COc1ccc(C[C@H]2NC[C@H](O)[C@H]2OC(C)=O)cc1 [ANISOMYCIN]
0.0326 µM: [3]
active: [12] < 0.0143 µM | [1] 0.0362 µM | [16] 0.0313 µM | [2] 0.0478 µM | [13] < 0.0198 µM | [4] 0.0361 µM | [17] < 0.0191 µM | [14] 0.0166 µM | [5] < 0.0121 µM | [18] 0.0193 µM | [6] 0.0243 µM | [7] 0.0106 µM | [15] 0.0316 µM | [9] < 0.0144 µM | [19] 0.0303 µM | [20] 0.0282 µM | [11] 0.0133 µM

O=c1[nH]nc(Cc2ccccc2)n1C1CC1
inactive: [12] > 100 µM | [1] > 100 µM | [16] > 100 µM | [2] > 100 µM | [13] > 100 µM | [4] > 100 µM | [17] > 100 µM | [14] > 100 µM | [5] > 100 µM | [18] > 100 µM | [6] > 100 µM | [7] > 100 µM | [15] > 100 µM | [9] > 100 µM | [19] > 100 µM | [20] > 100 µM | [11] > 100 µM
> 100 µM: [3]

COc1c(Br)cc2c(c1OC)C(Br)CCC(Br)(Br)C2=O (stereo not given)
inactive: [1] 3.18 µM | [2] 4.92 µM | [4] 3.93 µM | [17] 1.44 µM | [5] 1.82 µM | [6] 1.34 µM | [7] 2.77 µM | [9] 2.29 µM | [19] 1.85 µM
0.314 µM: [3]
active: [12] 0.0368 µM | [16] 0.242 µM | [13] 0.393 µM | [14] 0.382 µM | [18] 0.74 µM | [15] 0.386 µM | [20] 0.587 µM | [11] 0.653 µM

O=c1[nH]c2nccn2c2c1SCCN2
> 100 µM: [3]
inactive: [12] > 100 µM | [1] > 100 µM | [16] > 100 µM | [2] > 100 µM | [13] > 100 µM | [4] > 100 µM | [17] > 100 µM | [14] > 100 µM | [5] > 100 µM | [18] > 100 µM | [6] > 100 µM | [7] > 100 µM | [15] > 100 µM | [9] > 100 µM | [19] > 100 µM | [20] > 100 µM | [11] > 100 µM

CC(=O)[C@]1(C)[C@H](C)O[C@](C)(CO)[C@H]1O[Si](C)(C)c1ccccc1
inactive: [12] 31.8 µM | [1] 97.9 µM | [16] 54 µM | [2] > 100 µM | [13] 23.2 µM | [4] 46.3 µM | [17] 45.5 µM | [14] 51.6 µM | [5] 56.6 µM | [18] 31.8 µM | [6] 35.2 µM | [7] 17.9 µM | [15] 20.5 µM | [9] 46.7 µM | [19] 17.8 µM | [20] 37.3 µM | [11] 33.9 µM
23 µM: [3]

O=C(O)Cc1ccc2c(c1)/C(=C1/Nc3ccccc3C1=O)C(=O)N2
inactive: [12] 21.9 µM | [1] 24.4 µM | [16] 38.4 µM | [2] > 100 µM | [13] 35 µM | [4] 26.2 µM | [17] 28.6 µM | [14] 56.1 µM | [5] 35.1 µM | [18] 10.8 µM | [6] 27.9 µM | [7] 24.8 µM | [15] 39.6 µM | [9] 32.5 µM | [19] 7.71 µM | [20] > 100 µM | [11] 20.7 µM
27.6 µM: [3]

c1cc(CSc2ncnc3[nH]cnc23)ccn1
> 100 µM: [3]
inactive: [12] 34.4 µM | [1] 37.4 µM | [16] 42.9 µM | [2] > 100 µM | [13] 42.2 µM | [4] > 100 µM | [17] > 100 µM | [14] > 100 µM | [5] > 100 µM | [18] 83.4 µM | [6] 58.1 µM | [7] > 100 µM | [15] > 100 µM | [9] > 100 µM | [19] 76.6 µM | [20] > 100 µM | [11] > 100 µM
